# Test results reported in patent US6974831B2, “sPLA2 inhibitors” (Eli Lilly and Company, priority 2000, dated 2005).
# Target: T1, recombinant human secreted phospholipase A2 (Homo sapiens, UniProt P14555)
# T1 sequence (P14555 21-144): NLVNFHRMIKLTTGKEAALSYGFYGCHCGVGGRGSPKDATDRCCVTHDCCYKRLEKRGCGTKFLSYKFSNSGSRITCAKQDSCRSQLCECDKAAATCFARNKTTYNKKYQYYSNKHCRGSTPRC
# Experiment: chromogenic assay of sPLA2 inhibition (diheptanoyl thio-PC / DTNB, 96 well microtiter plates)
# Assay type: biochemical
# Details: absorbance at 405 nanometers, 40° C. for 30 minutes, pH 7.5, titrated in triplicate and averaged
# Text: The following chromogenic assay procedure was used to identify and evaluate inhibitors of recombinant human secreted phospholipase A2. The assay described herein has been adapted for high volume screening using 96 well microtiter plates. A general description of this assay method is found in the article, “Analysis of Human Synovial Fluid Phospholipase A2 on Short Chain Phosphatidylcholine-Mixed Micelles: Development of a Spectrophotometric Assay Suitable for a Microtiterplate Reader”, by Laure J. Reynolds, Lori L. Hughes, and Edward A Dennis, Analytical Biochemistry, 204, pp. 190-197, 1992 (the disclosure of which is incorporated herein by reference):
# REACTION BUFFER— • CaCl2.2H2O (1.47 g/L) • KCl (7.455 g/L) • Bovine Serum Albumin (fatty acid free) (1 g/L) • (Sigma A-7030, product of Sigma • Chemical Co., St. Louis Mo., USA) • TRIS HCl (3.94 g/L) • pH 7.5 (adjust with NaOH)
# ENZYME BUFFER— • 0.05 NaOAc.3H2O, pH 4.5 • 0.2 NaCl • Adjust pH to 4.5 with acetic acid
# DTNB—5,5′-dithiobis-2-nitrobenzoic acid
# RACEMIC DIHEPTANOYL THIO—PC • racemic 1,2-bis(heptanoylthio)-1,2-dideoxy-sn-glycero-3-phosphorylcholine • TRITON X-100™ prepare at 6.249 mg/ml in reaction buffer to equal […].
# A measured volume of racemic dipheptanoyl thio PC supplied in chloroform at a concentration of 100 mg/ml is taken to dryness and redissolved in 10 millimolar TRITON X-100™ nonionic detergent aqueous solution. Reaction Buffer is added to the solution, then DTNB to give the Reaction Mixture.
# The reaction mixture thus obtained contains 1 mM diheptanoly thio-PC substrate, 0.29 mm Triton X-100™ detergent, and 0.12 mm DTMB in a buffered aqueous solution at pH 7.5.
# • 1. Add 0.2 ml reaction mixture to all wells; • 2. Add 10 ul test compound (or solvent blank) to appropriate wells, mix 20 seconds; • 3. Add 50 nanograms of sPLA2 (10 microliters) to appropriate wells; • 4. Incubate plate at 40° C. for 30 minutes; • 5. Read absorbance of wells at 405 nanometers with an automatic plate reader.
# Tests were done in triplicate. Typically, compounds were tested at a final concentration of 5 ug/ml. […] Lack of color development at 405 nanometers evidenced inhibition. Compounds initially found to be active were re-assayed to confirm their activity and, if sufficiently active, IC50 values were determined. […] In all cases, % inhibition measured at 405 nanometers generated by enzyme reactions containing inhibitors relative to the uninhibited control reactions was determined. Each sample was titrated in triplicate and result values were averaged for plotting and calculation of IC50 values. IC50 values were determined by plotting log concentration versus inhibition values in the range from 10-90% inhibition.
row,SMILES,IC50
1,"Cc1c(C(=O)C(N)=O)c2c(OCC(=O)O)cc3c(c2n1Cc1ccccc1F)CCC3 [Example 9, 2-[[3-(2-Amino-1,2-dioxoethyl)-2-methyl-1-(2-fluorobenzyl)-1,6,7,8-tetrahydrocyclopent[g]indol-4-yl]oxy]acetic acid]",0.009 µM
2,"Cc1c(C(=O)C(N)=O)c2c(OCC(=O)NS(=O)(=O)c3ccccc3)cc3c(c2n1Cc1ccccc1)CCC3 [Example 5, 2-[4-(2-Benzenesulfonylamino-2-oxoethoxy)-1-benzyl-2-methyl-1,6,7,8-tetrahydro-1-aza-as-indacen-3-yl]-2-oxoacetamide]",0.007 µM
3,"CCc1c(C(=O)C(N)=O)c2c(OCC(=O)O)cc3c(c2n1Cc1ccccc1)CCCC3 [Example 13, 2-[[3-(2-Amino-1,2-dioxoethyl)-1-benzyl-2-ethyl-6,7,8,9-tetrahydro-1H-benz[g]indol-4-yl]oxy]acetic acid]",0.011 µM
4,"COC(=O)COc1cc2c(c3c1c(C(=O)C(N)=O)c(C)n3Cc1ccccc1-c1ccc(Br)s1)CCC2 [Example 20, 2-[[3-(2-amino-1,2-dioxoethyl)-1-[2-(5-bromothiophen-2-yl)benzyl]-2-methyl-1,6,7,8-tetrahydrocyclopent[g]indol-4-yl]oxy]acetic acid methyl ester]",0.638 µM
5,"Cc1c(C(=O)C(N)=O)c2c(OCC(=O)O)cc3c(c2n1Cc1ccccc1Br)CCC3 [Example 17, 2-[[3-(2-Amino-1,2-dioxoethyl)-2-methyl-1-(2-bromobenzyl)-1,6,7,8-tetrahydrocyclopent[g]indol-4-yl]oxy]acetic acid]",0.01 µM
6,"COC(=O)COc1cc2c(c3c1c(C(=O)C(N)=O)c(C)n3Cc1ccccc1)CCCC2 [Example 14, 2-[[3-(2-Amino-1,2-dioxoethyl)-1-benzyl-2-methyl-6,7,8,9-tetrahydro-1H-benz[g]indol-4-yl]oxy]acetic acid methyl ester]",0.109 µM
7,"CCc1c(C(=O)C(N)=O)c2c(OCC(=O)OC)cc3c(c2n1Cc1ccccc1)CCCC3 [Example 12, 2-[[3-(2-Amino-1,2-dioxoethyl)-1-benzyl-2-ethyl-6,7,8,9-tetrahydro-1H-benz[g]indol-4-yl]oxy]acetic acid methyl ester]",0.1 µM
8,"COC(=O)COc1cc2c(c3c1c(C(=O)C(N)=O)c(C)n3Cc1ccccc1)CCC2 [Example 3, 2-[[3-(2-Amino-1,2-dioxoethyl)-2-methyl-1-benzyl-1,6,7,8-tetrahydrocyclo-pent[g]indol-4-yl]oxy]acetic acid methyl ester]",0.106 µM
9,"CCc1c(C(=O)C(N)=O)c2c(OCC(=O)O)cc3c(c2n1Cc1ccccc1)CCC3 [Example 2, 2-[[3-(2-Amino-1,2-dioxoethyl)-2-ethyl-1-benzyl-1,6,7,8-tetrahydrocyclo-pent[g]indol-4-yl]oxy]acetic acid]",0.013 µM
10,"Cc1c(C(=O)C(N)=O)c2c(OCC(=O)O)cc3c(c2n1Cc1ccccc1)CCCC3 [Example 15, 2-[[3-(2-Amino-1,2-dioxoethyl)-1-benzyl-2-methyl-6,7,8,9-tetrahydro-1H-benz[g]indol-4-yl]oxy]acetic acid]",0.01 µM
11,"COC(=O)COc1cc2c(c3c1c(C(=O)C(N)=O)c(C)n3Cc1ccc(F)cc1)CCC2 [Example 10, 2-[[3-(2-Amino-1,2-dioxoethyl)-2-methyl-1-(4-fluorobenzyl)-1,6,7,8-tetrahydrocyclopent[g]indol-4-yl]oxy]acetic acid methyl ester]",0.806 µM
12,"Cc1c(C(=O)C(N)=O)c2c(OCC(=O)O)cc3c(c2n1Cc1ccccc1)CCC3 [Example 4, 2-[[3-(2-Amino-1,2-dioxoethyl)-2-methyl-1-benzyl-1,6,7,8-tetrahydrocyclopent[g]indol-4-yl]oxy]acetic acid]",0.01 µM
13,"Cc1c(C(=O)C(N)=O)c2c(OCC(=O)O)cc3c(c2n1Cc1ccccc1-c1ccccc1)CCC3 [Example 19, 2-[[3-(2-Amino-1,2-dioxoethyl)-2-methyl-1-(2-phenylbenzyl)-1,6,7,8-tetrahydrocyclopent[g]indol-4-yl]oxy]acetic acid]",0.035 µM
14,"Cc1c(C(=O)C(N)=O)c2c(OCC(=O)O)cc3c(c2n1Cc1ccccc1-c1ccc(Br)s1)CCC3 [Example 21, 2-[[3-(2-amino-1,2-dioxoethyl)-2-methyl-1-[2-(5-bromothiophen-2-yl)benzyl]-1,6,7,8-tetrahydrocyclopent[g]indol-4-yl]oxy]acetic acid]",0.044 µM
15,"COC(=O)COc1cc2c(c3c1c(C(=O)C(N)=O)c(C)n3Cc1ccccc1F)CCC2 [Example 8, 2-[[3-(2-Amino-1,2-dioxoethyl)-2-methyl-1-(2-fluorobenzyl)-1,6,7,8-tetrahydrocyclopent[g]indol-4-yl]oxy]acetic acid methyl ester]",0.073 µM
16,"Cc1c(C(=O)C(N)=O)c2c(OCC(=O)O)cc3c(c2n1Cc1cccc(F)c1)CCC3 [Example 7, 2-[[3-(2-Amino-1,2-dioxoethyl)-2-methyl-1-(3-fluorobenzyl)-1,6,7,8-tetrahydrocyclopent[g]indol-4-yl]oxy]acetic acid hydrate]",0.01 µM
17,"COC(=O)COc1cc2c(c3c1c(C(=O)C(N)=O)c(C)n3Cc1ccccc1Br)CCC2 [Example 16, 2-[[3-(2-Amino-1,2-dioxoethyl)-2-methyl-1-(2-bromobenzyl)-1,6,7,8-tetrahydrocyclopent[g]indol-4-yl]oxy]acetic acid methyl ester]",0.453 µM
18,"CCc1c(C(=O)C(N)=O)c2c(OCC(=O)OC)cc3c(c2n1Cc1ccccc1)CCC3 [Example 1, 2-[[3-(2-Amino-1,2-dioxoethyl)-2-ethyl-1-benzyl-1,6,7,8-tetrahydrocyclo-pent[g]indol-4-yl]oxy]acetic acid methyl ester]",0.108 µM
19,"Cc1c(C(=O)C(N)=O)c2c(OCC(=O)O)cc3c(c2n1Cc1ccc(F)cc1)CCC3 [Example 11, 2-[[3-(2-Amino-1,2-dioxoethyl)-2-methyl-1-(4-fluorobenzyl)-1,6,7,8-tetrahydrocyclopent[g]indol-4-yl]oxy]acetic acid]",0.082 µM
20,"COC(=O)COc1cc2c(c3c1c(C(=O)C(N)=O)c(C)n3Cc1ccccc1-c1ccccc1)CCC2 [Example 18, 2-[[3-(2-Amino-1,2-dioxoethyl)-2-methyl-1-(2-phenylbenzyl)-1,6,7,8-tetrahydrocyclopent[g]indol-4-yl]oxy]acetic acid methyl ester]",0.19 µM
21,"COC(=O)COc1cc2c(c3c1c(C(=O)C(N)=O)c(C)n3Cc1cccc(F)c1)CCC2 [Example 6, 2-[[3-(2-Amino-1,2-dioxoethyl)-2-methyl-1-(3-fluorobenzyl)-1,6,7,8-tetrahydrocyclopent[g]indol-4-yl]oxy]acetic Acid methyl ester]",0.132 µM

# System: not given
# Experiment: not given
# Details: not given
row,SMILES,melting point
1,"COC(=O)COc1cc2c(c3c1c(C(=O)C(N)=O)c(C)n3Cc1ccc(F)cc1)CCC2 [Example 10, 2-[[3-(2-Amino-1,2-dioxoethyl)-2-methyl-1-(4-fluorobenzyl)-1,6,7,8-tetrahydrocyclopent[g]indol-4-yl]oxy]acetic acid methyl ester]",222 to 224 °C
